Test results published in PubChem BioAssay (NCI).
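All cell lines were grown in 96-well plates and treated with compound for 48 hours. GI50 = concentration required for 50% inhibition of growth. Definition used: TGI = concentration required for complete inhibition of growth.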

Assays:
Assay in all cases: NCI-60 cell line screen, 48 h
[1] = system: CAKI-1 renal
[2] = system: SK-MEL-28 melanoma
[3] = system: MCF7 breast
[4] = system: OVCAR-8 ovarian
[5] = system: SF-268 CNS
[6] = system: MALME-3M melanoma
[7] = system: DU-145 prostate
[8] = system: MDA-MB-435
[9] = system: NCI/ADR-RES ovarian
[10] = system: SR leukemia
[11] = system: DLD-1 colon
[12] = system: 786-0 renal

**Q.** With `O=[N+]([O-])/C=C/c1cccc(F)c1` as the compound, how does the TGI [1] read?
**A.** 29.9 µM

**Q.** And the TGI [2]?
**A.** 5.87 µM

**Q.** What about the TGI [3] of the same compound?
**A.** 3 µM

**Q.** What about the TGI [4] of the same compound?
**A.** 32 µM

**Q.** What about the TGI [5] of the same compound?
**A.** 29.4 µM

**Q.** And the TGI [6]?
**A.** 32.5 µM

**Q.** What about the TGI [7] of the same compound?
**A.** 21.6 µM

**Q.** What about the TGI [8] of the same compound?
**A.** 13.2 µM

**Q.** And the TGI [9]?
**A.** 35.2 µM

**Q.** What does the source list for `CN[C@@H]1[C@H](O)[C@H](NC)[C@H]2O[C@@]3(O)C(=O)C[C@@H](C)O[C@H]3O[C@@H]2[C@H]1O`?
**A.** TGI [1]: > 100 µM; TGI [10]: > 100 µM; TGI [2]: > 100 µM; TGI [3]: > 100 µM; TGI [4]: > 100 µM; TGI [5]: > 100 µM; TGI [6]: > 100 µM; TGI [7]: > 100 µM; TGI [8]: > 100 µM; TGI [9]: > 100 µM

**Q.** What does the source list for `Nc1nc(SCCC/C=C/B(O)O)nc2c1ncn2C1OC(CO)C(O)C1O` (centres undefined)?
**A.** TGI [10]: > 243 µM; TGI [2]: > 243 µM; TGI [4]: > 243 µM; TGI [5]: > 243 µM; TGI [11]: > 243 µM; TGI [6]: > 243 µM

**Q.** `C=C(/C=C/C=C(/CCC=C(C)C)COC(C)=O)[C@@H]1CC[C@]2([C@H](CCCO)/C(=C(/C)C=O)CC[C@]2(C)O)[C@@H]1O` was tested. Which TGI [1] did it give?
**A.** 17.5 µM

**Q.** What about the TGI [2] of the same compound?
**A.** 26.9 µM

**Q.** What about the TGI [4] of the same compound?
**A.** 52.3 µM

**Q.** What about the TGI [5] of the same compound?
**A.** 41.9 µM

**Q.** And the TGI [11]?
**A.** 30.4 µM

**Q.** And the TGI [6]?
**A.** 15.7 µM

**Q.** `CC1(C)[C@@H]2C[C@H]1C(Cc1ccccc1C[C@H]1c3cc(-c4ccccn4)ncc3[C@H]3C[C@@H]1C3(C)C)c1cc(-c3ccccn3)ncc12` (some centres undefined) was tested. Which TGI [1] did it give?
**A.** > 40.8 µM

**Q.** And the TGI [10]?
**A.** 1.28 µM

**Q.** What about the TGI [2] of the same compound?
**A.** > 100 µM

**Q.** And the TGI [3]?
**A.** > 100 µM

**Q.** And the TGI [4]?
**A.** > 25.5 µM

**Q.** And the TGI [5]?
**A.** > 36.2 µM

**Q.** And the TGI [6]?
**A.** > 100 µM

**Q.** And the TGI [7]?
**A.** > 37.9 µM

**Q.** And the TGI [8]?
**A.** > 42.2 µM

**Q.** What about the TGI [9] of the same compound?
**A.** > 36.7 µM

**Q.** Which TGI [10] does the source give for `COc1cc2c(cc1OC)C(C1(O)CCCCC1)NCC2` (centres undefined) here?
**A.** > 100 µM

**Q.** And the TGI [2]?
**A.** > 100 µM

**Q.** And the TGI [4]?
**A.** > 100 µM

**Q.** What about the TGI [5] of the same compound?
**A.** > 100 µM

**Q.** And the TGI [11]?
**A.** > 100 µM

**Q.** And the TGI [6]?
**A.** > 100 µM

**Q.** With `C#CCCCCC#CC1CCCC1C1=CC(=O)c2ccccc21` (centres undefined) as the compound, how does the TGI [10] read?
**A.** > 100 µM

**Q.** What about the TGI [2] of the same compound?
**A.** 18.5 µM

**Q.** What about the TGI [4] of the same compound?
**A.** 3.52 µM

**Q.** And the TGI [5]?
**A.** 11.8 µM

**Q.** What about the TGI [11] of the same compound?
**A.** 24.3 µM

**Q.** What about the TGI [6] of the same compound?
**A.** 20.1 µM

**Q.** For `CN(C)CCNc1ccc2nnn3c4ccc(Cl)cc4c(=O)c1c23`, which TGI [1] is on record?
**A.** 11 µM

**Q.** And the TGI [10]?
**A.** 10.1 µM

**Q.** What about the TGI [2] of the same compound?
**A.** 18 µM

**Q.** What about the TGI [3] of the same compound?
**A.** 96.2 µM

**Q.** What about the TGI [4] of the same compound?
**A.** 16.9 µM

**Q.** What about the TGI [5] of the same compound?
**A.** 23.1 µM

**Q.** And the TGI [11]?
**A.** 27.7 µM

**Q.** What about the TGI [6] of the same compound?
**A.** 17 µM

**Q.** What about the TGI [7] of the same compound?
**A.** 26.2 µM

**Q.** And the TGI [8]?
**A.** 18.8 µM

**Q.** What about the TGI [9] of the same compound?
**A.** 15.9 µM

**Q.** What about the TGI [12] of the same compound?
**A.** 15.6 µM

**Q.** For `Cc1c(Cl)c(S(N)(=O)=O)cc(S(N)(=O)=O)c1NC(=O)c1ccc(Cl)cc1`, which TGI [1] is on record?
**A.** > 100 µM

**Q.** What about the TGI [2] of the same compound?
**A.** > 100 µM

**Q.** And the TGI [3]?
**A.** > 100 µM

**Q.** And the TGI [4]?
**A.** > 100 µM

**Q.** And the TGI [5]?
**A.** > 100 µM

**Q.** What about the TGI [6] of the same compound?
**A.** > 100 µM

**Q.** And the TGI [7]?
**A.** > 100 µM

**Q.** What about the TGI [8] of the same compound?
**A.** > 100 µM

**Q.** What about the TGI [9] of the same compound?
**A.** > 100 µM

**Q.** And the TGI [12]?
**A.** > 100 µM

**Q.** Which results are given for `NC(=O)c1nnc2cc(F)c(F)cc2c1N`?
**A.** TGI [1]: > 100 µM; TGI [10]: > 100 µM; TGI [3]: > 100 µM; TGI [4]: > 100 µM; TGI [5]: 49.9 µM; TGI [6]: > 100 µM; TGI [7]: > 100 µM; TGI [8]: > 100 µM; TGI [9]: > 100 µM; TGI [12]: > 100 µM

**Q.** What does the source list for `NC(Cc1ccc2oc3cc(=O)c4ccccc4c-3nc2c1)C(=O)O` (centres undefined)?
**A.** TGI [1]: > 97.7 µM; TGI [10]: 67.6 µM; TGI [2]: 59 µM; TGI [3]: 11.2 µM; TGI [4]: > 100 µM; TGI [5]: > 100 µM; TGI [11]: > 66.6 µM; TGI [6]: 17.6 µM; TGI [7]: 32 µM; TGI [8]: 12.2 µM; TGI [9]: > 100 µM; TGI [12]: > 100 µM

**Q.** What does the source list for `Cc1ccccc1N=Nc1ccc(N=Nc2c(O)ccc3cc(S(=O)(=O)O)cc(S(=O)(=O)O)c23)c(C)c1`?
**A.** TGI [1]: > 100 µM; TGI [10]: > 100 µM; TGI [2]: > 100 µM; TGI [3]: > 100 µM; TGI [4]: > 100 µM; TGI [5]: > 100 µM; TGI [6]: > 100 µM; TGI [8]: > 100 µM; TGI [9]: > 100 µM; TGI [12]: > 100 µM

**Q.** `Cc1ccc(NCCN(C)CC(C)O)c2c(=O)c3ccc(Cl)cc3sc12` (centres undefined) was tested. Which GI50 [2] did it give?
**A.** 1.75 µM

**Q.** And the TGI [2]?
**A.** 3.31 µM

**Q.** And the GI50 [3]?
**A.** 2.18 µM

**Q.** And the TGI [3]?
**A.** > 100 µM

**Q.** What about the GI50 [4] of the same compound?
**A.** 7.16 µM

**Q.** What about the TGI [4] of the same compound?
**A.** > 100 µM

**Q.** And the GI50 [5]?
**A.** 6.47 µM

**Q.** What about the TGI [5] of the same compound?
**A.** > 100 µM

**Q.** What about the GI50 [6] of the same compound?
**A.** 1.78 µM

**Q.** And the TGI [6]?
**A.** 3.54 µM

**Q.** And the GI50 [7]?
**A.** 3.75 µM

**Q.** What about the TGI [7] of the same compound?
**A.** > 100 µM

**Q.** And the GI50 [9]?
**A.** 4.68 µM

**Q.** What about the TGI [9] of the same compound?
**A.** > 100 µM

**Q.** Which results are given for `O=S(=O)(O)c1cc(O)c2c(O)c(N=Nc3ccc(/C=C/c4ccc(N=Nc5c(S(=O)(=O)O)cc6cc(S(=O)(=O)O)cc(O)c6c5O)cc4S(=O)(=O)O)c(S(=O)(=O)O)c3)c(S(=O)(=O)O)cc2c1`?
**A.** TGI [1]: > 100 µM; TGI [10]: > 100 µM; TGI [2]: > 100 µM; TGI [4]: > 100 µM; TGI [5]: > 100 µM; TGI [11]: > 100 µM; TGI [6]: > 100 µM; TGI [12]: > 100 µM

**Q.** Which results are given for `C/C=C1/CN2CC[C@@H]3c4ccccc4N4[C@H](C(=O)OC)[C@H]1C[C@H]2[C@]34/C=C/C1=COC[C@@H]2[C@H]1C[C@H]1c3c(c4ccccc4n3C)C[C@@H]2N1C`?
**A.** TGI [1]: 7.89 µM; TGI [10]: 19.3 µM; TGI [2]: 8.88 µM; TGI [3]: 8.67 µM; TGI [4]: 8.04 µM; TGI [5]: 7.16 µM; TGI [6]: 8.5 µM; TGI [7]: 11.9 µM; TGI [8]: 7.18 µM; TGI [9]: 6.69 µM
